From PMC2229530 (The Journal of General Physiology, 2002)
Each block holds one compound with its values, some of them ahead of it.

Columns and labels:
sodium pump [1] = target: sodium pump (Homo sapiens, UniProt P05023); format: cell-based; conditions: for Slope of replot of A versus inhibitor concentration (unprotonated pump) / Slope of replot of B versus inhibitor concentration (protonated pump): 0.3 mM rubidium; for Slope of replot of A versus inhibitor concentration (unprotonated pump): Fig. 4a; for Slope of replot of B versus inhibitor concentration (protonated pump): Fig. 4b
sodium pump [2] = target: sodium pump (Rattus norvegicus, UniProt P06685); format: cell-based
Chain of sodium pump (Rattus norvegicus, UniProt P06685) (Q63377 whole entry, other chains not shown): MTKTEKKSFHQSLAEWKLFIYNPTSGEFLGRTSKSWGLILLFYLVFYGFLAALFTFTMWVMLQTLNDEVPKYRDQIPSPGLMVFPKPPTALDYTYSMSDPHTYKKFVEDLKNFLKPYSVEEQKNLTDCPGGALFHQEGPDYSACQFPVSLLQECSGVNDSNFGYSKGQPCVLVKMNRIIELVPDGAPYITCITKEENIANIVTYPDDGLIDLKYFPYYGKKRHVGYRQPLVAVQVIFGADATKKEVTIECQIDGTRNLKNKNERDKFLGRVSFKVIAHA

Slope of replot of A versus inhibitor concentration (unprotonated pump) (sodium pump [1]; human red blood cells): 0.271 ± 0.037
Slope of replot of B versus inhibitor concentration (protonated pump) (sodium pump [1]; human red blood cells): 0.040 ± 0.006
Fold increase by protons of the kinetic constant (sodium pump [2]; rat red cells): 7.1 fold
Compound: [Na+] [sodium]

Slope of replot of A versus 1/[Rb] (sodium pump [1]; human red blood cells, A normalized to y intercept 1, Fig. 2b): 1.32 ± 0.07
Slope of replot of B versus 1/[Rb] (sodium pump [1]; human red blood cells, Fig. 2b): 0.0387 ± 0.0074
KRb, kinetic constant for rubidium binding to the unprotonated pump (sodium pump [1]; human red cells, from replot of A vs 1/Rb, 37°C): 1.32 ± 0.07 mM
LRb, kinetic constant for rubidium binding to the protonated pump (sodium pump [1]; human red cells, from replot of B vs 1/Rb, 37°C): 0.0387 ± 0.0074 mM
Slope of replot of A versus 1/[Rb] (sodium pump [2]; rat red blood cells, A normalized to y intercept 1, Fig. 2a): 0.868 ± 0.101
Slope of replot of B versus 1/[Rb] (sodium pump [2]; rat red blood cells, Fig. 2a): 0.066 ± 0.0059
Fold decrease by protons of the kinetic constant / Ki (sodium pump [2]; rat red cells): ~13 fold
KRb, kinetic constant for rubidium binding to the unprotonated pump (sodium pump [2]; rat red cells, from replot of A vs 1/Rb, 37°C): 0.87 ± 0.1 mM
LRb, kinetic constant for rubidium binding to the protonated pump (sodium pump [2]; rat red cells, from replot of B vs 1/Rb, 37°C): 0.066 ± 0.006 mM
Compound: [Rb] [rubidium]

More lines, now with the values behind:

Compound: [H+] [protons]
Kd (sodium pump [2]; read-out: KH, proton binding to the pump in the absence of rubidium, rat pump, unloaded): 2.11 nM

Compound: C[C@@H]1O[C@@H](O[C@H]2C[C@@H](O)[C@]3(CO)[C@H]4[C@H](O)C[C@]5(C)[C@@H](C6=CC(=O)OC6)CC[C@]5(O)[C@@H]4CC[C@]3(O)C2)[C@H](O)[C@H](O)[C@H]1O [ouabain]
Fold decrease by protons of the kinetic constant / Ki (sodium pump [2]; rat red cells): 2.2 fold
Fold increase of the kinetic constant for protons caused by the ligand (sodium pump [2]; rat red cells): 2.2 fold

Compound: CC[N+](C)(C)Cc1ccccc1Br [bretylium]
Slope of replot of A versus inhibitor concentration (unprotonated pump) (sodium pump [1]; human red blood cells): 0.392 ± 0.078
Slope of replot of B versus inhibitor concentration (protonated pump) (sodium pump [1]; human red blood cells): 0.282 ± 0.019

Compound: N=C(N)N.O=[N+]([O-])O [guanidinium, Guanidium (guanidine) nitrate]
Slope of replot of A versus inhibitor concentration (unprotonated pump) (sodium pump [1]; human red blood cells): 0.175 ± 0.014
Slope of replot of B versus inhibitor concentration (protonated pump) (sodium pump [1]; human red blood cells): 0.016 ± 0.001
